Measured values as given in patent publication US9732075B2, “Benzimidazole-proline derivatives” (IDORSIA PHARMACEUTICALS LTD, priority 2012, dated 2017).

Columns and labels:
human orexin-1 receptor = human orexin-1 receptor (Homo sapiens (Human), UniProt O43613); experiment: In vitro assay: intracellular calcium measurements (FLIPR), antagonistic activity; assay type: cell-based; conditions: CHO cells expressing human orexin-1 receptor, orexin-A agonist, geometric mean, read-out: IC50 Ox1
Procedure, shortened: (§1)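 hOX1R/hOX2R CHO cells, fluo-4 AM + 5 mM probenecid, 50 min 37 °C then 30 min RT. Cpd 120 min, then orexin-A 3 nM final; FLIPR peak height vs vehicle. IC50, geometric mean of repeats.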

human orexin-2 receptor = human orexin-2 receptor (Homo sapiens (Human), UniProt O43614); experiment: as above; assay type: cell-based; conditions: CHO cells expressing human orexin-2 receptor, orexin-A agonist, geometric mean, read-out: IC50 Ox2
Sequence of human orexin-2 receptor (O43614 whole entry): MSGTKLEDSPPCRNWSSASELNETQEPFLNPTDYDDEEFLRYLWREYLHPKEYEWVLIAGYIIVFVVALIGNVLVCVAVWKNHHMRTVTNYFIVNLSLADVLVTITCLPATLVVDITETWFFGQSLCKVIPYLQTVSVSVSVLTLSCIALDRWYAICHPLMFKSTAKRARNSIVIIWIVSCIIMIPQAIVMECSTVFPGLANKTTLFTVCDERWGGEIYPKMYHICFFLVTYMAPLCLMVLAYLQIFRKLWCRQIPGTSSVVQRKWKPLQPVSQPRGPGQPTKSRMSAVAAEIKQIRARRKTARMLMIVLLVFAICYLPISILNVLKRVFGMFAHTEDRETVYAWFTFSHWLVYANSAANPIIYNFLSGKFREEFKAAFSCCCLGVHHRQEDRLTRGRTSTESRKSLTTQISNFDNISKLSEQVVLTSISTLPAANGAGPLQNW
Procedure, shortened: as §1

Sequence of human orexin-1 receptor (O43613 whole entry): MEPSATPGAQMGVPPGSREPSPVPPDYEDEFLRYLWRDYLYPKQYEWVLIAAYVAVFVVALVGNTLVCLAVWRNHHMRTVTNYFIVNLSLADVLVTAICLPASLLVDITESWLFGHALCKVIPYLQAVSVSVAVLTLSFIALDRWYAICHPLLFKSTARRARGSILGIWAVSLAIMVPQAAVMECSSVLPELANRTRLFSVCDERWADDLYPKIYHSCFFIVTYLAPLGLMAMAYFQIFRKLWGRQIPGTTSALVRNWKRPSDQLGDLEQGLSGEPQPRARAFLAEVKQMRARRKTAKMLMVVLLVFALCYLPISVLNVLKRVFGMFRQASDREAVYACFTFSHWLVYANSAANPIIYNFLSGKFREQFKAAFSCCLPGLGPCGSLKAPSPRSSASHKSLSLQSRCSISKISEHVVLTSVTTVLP

SMILES | IC50 (human orexin-1 receptor) | IC50 (human orexin-2 receptor)
COc1ccc2[nH]c([C@]3(C)CCCN3C(=O)c3cc(C)ccc3-n3nccn3)nc2c1 [Ex. 5.32] | 90 nM | 46 nM
Cc1c(Cl)ccc2[nH]c([C@]3(C)CCCN3C(=O)c3cc(Cl)ccc3-n3nccn3)nc12 [Ex. 5.34] | 2 nM | 9 nM
Cc1c(Cl)ccc2[nH]c([C@]3(C)CCCN3C(=O)c3cc(OC(F)(F)F)ccc3-n3nccn3)nc12 [Ex. 5.35] | 102 nM | 99 nM
COc1ccc(-n2nccn2)c(C(=O)N2CCC[C@@]2(C)c2nc3c(C)c(Cl)ccc3[nH]2)c1F [Ex. 5.37] | 10 nM | 16 nM
Cc1ccc(C(=O)N2CCC[C@@]2(C)c2nc3c(C)c(Cl)ccc3[nH]2)c(-n2nccn2)c1 [Ex. 5.38] | 4 nM | 12 nM
COc1cc(C(=O)N2CCC[C@@]2(C)c2nc3c(C)c(Cl)ccc3[nH]2)c(-n2nccn2)cc1OC [Ex. 5.39] | 36 nM | 20 nM
Cc1c(Cl)ccc2[nH]c([C@]3(C)CCCN3C(=O)c3cc(C(F)(F)F)ccc3-n3nccn3)nc12 [Ex. 5.40] | 44 nM | 91 nM
Cc1cc(C(=O)N2CCC[C@@]2(C)c2nc3c(C)c(Cl)ccc3[nH]2)c(-n2nccn2)cc1C [Ex. 5.41] | 2 nM | 2 nM
Cc1c(Cl)ccc2[nH]c([C@]3(C)CCCN3C(=O)c3cc(F)ccc3-n3nccn3)nc12 [Ex. 5.45] | 5 nM | 12 nM
Cc1c(Cl)ccc2[nH]c([C@]3(C)CCCN3C(=O)c3ccccc3-n3nccn3)nc12 [Ex. 5.46] | 6 nM | 14 nM
Cc1ccc(-n2nccn2)c(C(=O)N2CCC[C@@]2(C)c2nc3c(C)c(Cl)ccc3[nH]2)n1 [Ex. 5.47] | 5 nM | 15 nM
COc1ccc(-n2nccn2)c(C(=O)N2CCC[C@@]2(C)c2nc3c(C)cccc3[nH]2)c1 [Ex. 5.50] | 49 nM | 33 nM
COc1ccc(-n2nccn2)c(C(=O)N2CCC[C@@]2(C)c2nc3cc(C)c(C)cc3[nH]2)c1 [Ex. 5.54] | 33 nM | 20 nM
Cc1cc2nc([C@]3(C)CCCN3C(=O)c3cc(F)ccc3-n3nccn3)[nH]c2cc1C [Ex. 5.60] | 156 nM | 54 nM
COc1cc2nc([C@]3(C)CCCN3C(=O)c3cc(F)ccc3-n3nccn3)[nH]c2cc1OC [Ex. 5.65] | 200 nM | 154 nM
COc1cc2nc([C@]3(C)CCCN3C(=O)c3c(F)cccc3-n3nccn3)[nH]c2cc1OC [Ex. 5.66] | 872 nM | 458 nM
COc1cc2nc([C@]3(C)CCCN3C(=O)c3c(-n4nccn4)ccc(C)c3F)[nH]c2cc1OC [Ex. 5.68] | 141 nM | 150 nM
COc1cc2nc([C@]3(C)CCCN3C(=O)c3c(-n4nccn4)ccc(OC)c3F)[nH]c2cc1OC [Ex. 5.69] | 414 nM | 1200 nM
COc1cc2nc([C@]3(C)CCCN3C(=O)c3nc(C)sc3-c3ccc(C(F)(F)F)cc3)[nH]c2cc1OC [Ex. 5.74] | 592 nM | 414 nM
COc1cc2nc([C@]3(C)CCCN3C(=O)c3sc(C)nc3-c3ccc(C)cc3)[nH]c2cc1OC [Ex. 5.75] | 300 nM | 126 nM
COc1cc2nc([C@]3(C)CCCN3C(=O)c3ncsc3-c3cccc(Cl)c3)[nH]c2cc1OC [Ex. 5.80] | 548 nM | 360 nM
COc1cc2nc([C@]3(C)CCCN3C(=O)c3ccccc3-n3cccn3)[nH]c2cc1OC [Ex. 5.81] | 258 nM | 130 nM
COc1cc2nc([C@]3(C)CCCN3C(=O)c3nc(C)ccc3-n3cccn3)[nH]c2cc1OC [Ex. 5.83] | 426 nM | 104 nM
COc1cc2nc([C@]3(C)CCCN3C(=O)c3nc(C)ccc3-n3nccn3)[nH]c2cc1OC [Ex. 5.85] | 316 nM | 114 nM

Continued by falling IC50 (human orexin-1 receptor), values first:

IC50 (human orexin-1 receptor) | IC50 (human orexin-2 receptor) | SMILES
138 nM | 76 nM | COc1cc2nc([C@]3(C)CCCN3C(=O)c3cc(OC(F)(F)F)ccc3-n3nccn3)[nH]c2cc1OC [Ex. 5.84]
113 nM | 202 nM | COc1ccc(-n2nccn2)c(C(=O)N2CCC[C@@]2(C)c2nc3cc(C)c(C)cc3[nH]2)c1F [Ex. 5.55]
112 nM | 26 nM | Cc1cc2nc([C@]3(C)CCCN3C(=O)c3ccccc3-n3nccn3)[nH]c2cc1C [Ex. 5.61]
107 nM | 43 nM | Cc1cccc2[nH]c([C@]3(C)CCCN3C(=O)c3ccccc3-n3nccn3)nc12 [Ex. 5.52]
98 nM | 57 nM | COc1cc2nc([C@]3(C)CCCN3C(=O)c3ccccc3-n3nccn3)[nH]c2cc1OC [Ex. 5.73]
94 nM | 85 nM | COc1cc(C(=O)N2CCC[C@@]2(C)c2nc3cc(OC)c(OC)cc3[nH]2)c(-n2nccn2)cc1OC [Ex. 5.86]
85 nM | 114 nM | Cc1cccc2[nH]c([C@]3(C)CCCN3C(=O)c3cc(Cl)ccc3-n3nccn3)nc12 [Ex. 5.49]
64 nM | 153 nM | COc1ccc(-c2sc(C)nc2C(=O)N2CCC[C@@]2(C)c2nc3cc(OC)c(OC)cc3[nH]2)cn1 [Ex. 5.77]
57 nM | 55 nM | COc1cc(C(=O)N2CCC[C@@]2(C)c2nc3cc(C)c(C)cc3[nH]2)c(-n2nccn2)cc1OC [Ex. 5.57]
56 nM | 22 nM | COc1cc2nc([C@]3(C)CCCN3C(=O)c3cc(C(F)(F)F)ccc3-n3nccn3)[nH]c2cc1OC [Ex. 5.71]
49 nM | 75 nM | Cc1c(Cl)ccc2[nH]c([C@]3(C)CCCN3C(=O)c3ccccc3-n3cccn3)nc12 [Ex. 5.42]
44 nM | 740 nM | COc1ccc(OC)c2[nH]c([C@]3(C)CCCN3C(=O)c3cc(C)ccc3-n3nccn3)nc12 [Ex. 5.31]
43 nM | 97 nM | COc1cc2nc([C@]3(C)CCCN3C(=O)c3nc(C)sc3-c3ccc(Cl)cc3)[nH]c2cc1OC [Ex. 5.79]
42 nM | 84 nM | Cc1ccc(-n2cccn2)c(C(=O)N2CCC[C@@]2(C)c2nc3cc(C)c(C)cc3[nH]2)c1 [Ex. 5.59]
35 nM | 130 nM | Cc1ccc(-n2nccn2)c(C(=O)N2CCC[C@@]2(C)c2nc3cc(C)c(C)cc3[nH]2)n1 [Ex. 5.62]
33 nM | 47 nM | COc1cc2nc([C@]3(C)CCCN3C(=O)c3nc(C)sc3-c3cc(F)cc(F)c3)[nH]c2cc1OC [Ex. 5.76]
31 nM | 83 nM | COc1cc2nc([C@]3(C)CCCN3C(=O)c3ccc(C)cc3-n3nccn3)[nH]c2cc1OC [Ex. 5.70]
31 nM | 72 nM | COc1cc2nc([C@]3(C)CCCN3C(=O)c3nc(C)sc3-c3ccc(F)cc3)[nH]c2cc1OC [Ex. 5.78]
27 nM | 15 nM | COc1cc2nc([C@]3(C)CCCN3C(=O)c3cc(C)ccc3-n3cccn3)[nH]c2cc1OC [Ex. 5.82]
25 nM | 29 nM | Cc1ccc(-n2nccn2)c(C(=O)N2CCC[C@@]2(C)c2nc3c4c(ccc3[nH]2)OCCO4)c1 [Ex. 5.33]
24 nM | 23 nM | Cc1cc2nc([C@]3(C)CCCN3C(=O)c3cc(Cl)ccc3-n3nccn3)[nH]c2cc1C [Ex. 5.53]
19 nM | 16 nM | COc1cc2nc([C@]3(C)CCCN3C(=O)c3cc(C)c(C)cc3-n3nccn3)[nH]c2cc1OC [Ex. 5.72]
17 nM | 19 nM | COc1cc2nc([C@]3(C)CCCN3C(=O)c3cc(Cl)ccc3-n3nccn3)[nH]c2cc1OC [Ex. 5.64]
12 nM | 25 nM | Cc1c(Cl)ccc2[nH]c([C@]3(C)CCCN3C(=O)c3c(F)cccc3-n3nccn3)nc12 [Ex. 5.48]
12 nM | 15 nM | Cc1ccc(C(=O)N2CCC[C@@]2(C)c2nc3cc(C)c(C)cc3[nH]2)c(-n2nccn2)c1 [Ex. 5.56]
10 nM | 18 nM | Cc1cc(C(=O)N2CCC[C@@]2(C)c2nc3c(C)cccc3[nH]2)c(-n2nccn2)cc1C [Ex. 5.51]
8 nM | 29 nM | Cc1ccc(-n2cccn2)c(C(=O)N2CCC[C@@]2(C)c2nc3c(C)c(Cl)ccc3[nH]2)n1 [Ex. 5.44]
3 nM | 14 nM | Cc1ccc(-n2cccn2)c(C(=O)N2CCC[C@@]2(C)c2nc3c(C)c(Cl)ccc3[nH]2)c1 [Ex. 5.43]
3 nM | 6 nM | Cc1cc(C(=O)N2CCC[C@@]2(C)c2nc3cc(C)c(C)cc3[nH]2)c(-n2nccn2)cc1C [Ex. 5.58]
